# Laboratory results taken from patent US20060241096A1, “Agent for preventing or treating organ functional disorders and organ dysfunction” (priority 2001, published 2006).
# Marks after values point to notes of the source that are not given here.
# Columns and labels:
# [1] = system: myocardial infarction; experiment: Effect on myocardial infarction (Test Example 5); type: in vivo, rat; settings: male Wistar rats, left coronary artery ligated 25 min, 2 hrs reperfusion, mean ± standard error, N = 7-10
# Method: Each of 6-week old male Wistar rats (7-10 rats per group) was forced oral administration of vehicle, test compound 1 (2, 20 mg/kg), Atorvastatin (2, 20 mg/kg), Simvastatin (2, 20 mg/kg) using a gastric sonde by the volume of 1 mL/kg and once per day for 15 days. After 1 hr of the final administration, the anterior descending-branch of left coronary artery was ligated and reperfused after 25 min. After 2 hrs of reperfusion, Evance blue was intravenously injected from the right cervical vein so that the non-ischemic area was stained and can be distinguished from the ischemic area, and the rats were slaughtered. The ischemic area was carved out, and the living area was stained using p-nitroblue tetrazolium and distinguished from the necrotic area (portion of myocardial infarction). The area of myocardial infarction was calculated by the weight ratio relative to the ischemic area (Table 5).
# [2] = system: ubiquinone (CoQ9) in heart; experiment: Ubiquinone increasing effect in heart (Test Example 1); type: in vivo, rat; settings: male SD rats, mean ± standard error, N = 8
# Method: (§1) Each of 6-week old male SD rats (eight rats per group) was forced oral administration of a vehicle or test compound 1 using a gastric sonde by the volume of 5 mL/kg so that the doses became 6, 20, 60 mg/kg, respectively, once a day for 14 days. On the morning after 14 times of administration, the animals were beheaded to slaughter. Hearts were collected immediately, frozen in liquid nitrogen and stored at −80° C. On the following day, the hearts were homogenized and oxidized with iron(III) chloride. After extraction with ethanol/hexane, the concentration of ubiquinone was determined by HPLC (Table 1).
# [3] = system: ubiquinone (CoQ9, CoQ10) in brain; experiment: Ubiquinone increasing effect in brain (Test Example 3); type: in vivo, rat; settings: male SD rats, 14 administrations, arteria cerebri media occluded 2 h, 8 hrs reperfusion, right cerebral cortices and striata, mean ± standard error, N = 8
# Method: Each of 6-week old male SD rats (eight rats per group) was forced oral administration of a vehicle or test compound 1 using a gastric sonde by the volume of 5 mL/kg so that the doses became 2, 20 mg/kg, respectively. The day after 14 times of administration, a silicone plug was inserted from the carotid artery under halothane anesthetic to occlude proximal portion of the arteria cerebri media. After two hours, the plug was removed under light anesthetic, and reperfusion was carried out. After 8 hrs of reperfusion, the rats were beheaded to slaughter. The right cerebral cortices and striata were collected, frozen on dry ice and preserved at −80° C. On the following day, the right cerebral cortices and striata were homogenized and oxidized with iron(III) chloride. After extraction with ethanol/hexane, the concentration of ubiquinone was determined by HPLC (Table 3).
# [4] = system: cerebral infarction; experiment: Cerebral infarction suppressing effect (Test Example 4); type: in vivo, rat; settings: male SD rats, 14 administrations, arteria cerebri media occluded 2 h, 48 hrs reperfusion, TTC staining, mean ± standard error, N = 19-22
# Method: Each of 6-week old male SD rats (19 to 22 rats per group) was forced oral administration of a vehicle or test compound 1 using a gastric sonde by the volume of 5 mL/kg so that the doses became 2, 20 mg/kg, respectively, using a gastric sonde. The day after 14 times of administration, a silicone plug was inserted from the carotid artery under halothane anesthetic to occlude proximal portion of the arteria cerebri media. After two hours, the plug was removed under light anesthetic, and reperfusion was carried out. After 48 hrs of reperfusion, the rats were beheaded to slaughter. Six pieces of sliced brain from the forehead (thickness: 2 mm) were carved out and subjected to TTC staining (1% TTC, 37° C., 15 min). The TTC-stained image was photographed by a digital camera, and the area of cerebral infarction was measured by an image analyzer. (Table 4)
# [5] = system: ubiquinone (CoQ9) in liver and heart; experiment: Ubiquinone increasing effect in liver and heart (Test Example 2); type: in vivo, rat; settings: male SD rats, mean ± standard error, N = 8
# Method: as §1, with “to slaughter. Liver and hearts were collected” for “to slaughter. Hearts were collected”, “day, the livers and hearts were” for “day, the hearts were”, “HPLC (Table 2).” for “HPLC (Table 1).”
# [6] = 2 mg/kg oral once per day for 15 days
# [7] = 20 mg/kg oral once per day for 15 days
# [8] = 6 mg/kg oral once a day for 14 days
# [9] = 20 mg/kg oral once a day for 14 days
# [10] = 60 mg/kg oral once a day for 14 days
structure (smiles),measurement,setting,value
CCC(C)(C)C(=O)O[C@H]1C[C@@H](C)C=C2C=C[C@H](C)[C@H](CC[C@@H]3C[C@@H](O)CC(=O)O3)[C@H]21 [Simvastatin],Area of myocardial infarction,[1]; [6],51 ± 3 % ischemic area
same,Area of myocardial infarction,[1]; [7],51 ± 2 % ischemic area
"COc1cccc([C@H]2O[C@H](CC(=O)N3CCC(CC(=O)O)CC3)C(=O)N(CC(C)(C)COC(C)=O)c3ccc(Cl)cc32)c1OC [Compound 1, N-[[(3R,5S)-1-(3-acetoxy-2,2-dimethylpropyl)-7-chloro-5-(2,3-dimethoxyphenyl)-2-oxo-1,2,3,5-tetrahydro-4,1-benzoxazepin-3-yl]acetyl]piperidine-4-acetic acid]",Amount of CoQ9 in heart,[2]; [8],214.4 ± 6.6 μg/g heart
same,Amount of CoQ9 in heart,[2]; [9],215.3 ± 5.7 μg/g heart
same,Amount of CoQ9 in heart,[2]; [10],225.0 ± 4.6 μg/g heart
same,Amount of CoQ9 in brain,[3]; 2 mg/kg oral,22.0 ± 0.4 μg/g brain
same,Amount of CoQ10 in brain,[3]; 2 mg/kg oral,13.0 ± 0.3 μg/g brain
same,Amount of CoQ9 in brain,[3]; 20 mg/kg oral,24.9 ± 0.5 μg/g brain
same,Amount of CoQ10 in brain,[3]; 20 mg/kg oral,14.7 ± 0.3 μg/g brain
same,Area of myocardial infarction,[1]; [6],61 ± 4 % ischemic area
same,Area of myocardial infarction,[1]; [7],43 ± 2 % ischemic area
same,Volume of cerebral infarction,[4]; 2 mg/kg oral,289 ± 27 mm^3
same,Volume of cerebral infarction,[4]; 20 mg/kg oral,220 ± 35* mm^3
CC(C)c1c(C(=O)Nc2ccccc2)c(-c2ccccc2)c(-c2ccc(F)cc2)n1CC[C@@H](O)C[C@@H](O)CC(=O)O [Atorvastatin],Area of myocardial infarction,[1]; [6],51 ± 4 % ischemic area
same,Area of myocardial infarction,[1]; [7],47 ± 6 % ischemic area
"COc1cccc([C@H]2O[C@H](CC(=O)Nc3cccc(CCC(=O)O)c3)C(=O)N(CC(C)(C)CO)c3ccc(Cl)cc32)c1OC [Compound 2, 3-[3-[[(3R,5S)-7-chloro-5-(2,3-dimethoxyphenyl)-1-(3-hydroxy-2,2-dimethylpropyl)-2-oxo-1,2,3,5-tetrahydro-4,1-benzoxazepin-3-yl]acetyl]aminophenyl]propionic acid]",melting point,,141 to 144 °C
same,Amount of CoQ9 in heart,[5]; [8],202.7 ± 2.7 μg/g heart
same,Amount of CoQ9 in liver,[5]; [8],105.2 ± 3.5 μg/g liver
same,Amount of CoQ9 in heart,[5]; [9],208.3 ± 4.6 μg/g heart
same,Amount of CoQ9 in liver,[5]; [9],117.6 ± 4.6 μg/g liver
same,Amount of CoQ9 in heart,[5]; [10],204.7 ± 4.0 μg/g heart
same,Amount of CoQ9 in liver,[5]; [10],125.4 ± 3.4 μg/g liver
